Data reported in US20130165520A1, “Hybrid Molecule Having Mixed Retinoic Acid Receptor Agonism and Histone Deacetylase Inhibitory Properties” (priority 2010, published 2013).

Columns and labels:
ACHN [1] = test: cells; conditions: Homo sapiens, 48 h
SW-620 [2] = test: cells; conditions: Homo sapiens, SW-620, 48 h
OVCAR-3 [3] = test: cells; conditions: Homo sapiens, OVCAR-3, 48 h
HOP-62 = HOP-62 (Non-Small cell lung cancer); 48 h
T-47D [4] = conditions: T-47D (Breast); 48 h
HL-60(TB) = test: cells; conditions: Homo sapiens, HL-60, 48 h
SNB-75 = SNB-75 (CNS); 48 h
T-47D [5] = test: cells; conditions: Homo sapiens, T47D, 48 h
OVCAR-3 [6] = conditions: 48 h
[7] = system: acetylated histone H4 and p53 in MDA-MB-231 cells; test: Western blotting of acetylated histone H4 and p53; conditions: 10 μM, 18-24 h time course
Protocol: The potential of 3 to act as an HDACi and cause deacetylation of a synthetic substrate or hyperacetylation of HDACs target proteins was subsequently assessed. […] Intracellular HDACi activity was assessed by measuring levels of acetylated histone H4 and tumor suppressor protein p53 in MDA-MB-231 cells by Western blotting.
Western Blotting: MDA-MB-231 cells were plated in DMEM 5% FBS-T at 600 k cells per well in 6-well plates. […] Laemmli buffer at various time points. Protein concentration of the extracts was analyzed by BioRad DC protein assay. 20 μg of proteins per condition were loaded on an SDS-PA gel and transferred to a nitrocellulose membrane for blotting. Blotting was done using ABCAM primary antibodies EP356 (anti-p53) T3526 (anti-Tubulin) and AB1761 (anti-acH4).

A498 [8] = test: cells; conditions: Homo sapiens, A498, 48 h
A549/ATCC = A549/ATCC (Non-Small cell lung cancer); 48 h
MCF7 = MCF7 (Breast); 48 h
DU-145 [9] = test: cells; conditions: Homo sapiens, DU-145, 48 h
MOLT-4 [10] = conditions: MOLT-4 (Leukemia); 48 h
A498 [11] = conditions: A498 (Renal); 48 h
COLO205 = COLO205 (Colon); 48 h
K-562 [12] = test: cells; conditions: Homo sapiens, K562, 48 h
MCF-7 = test: Cell growth measurement; assay type: cell-based; conditions: 10 days of treatment
Protocol: (§1) Finally, the effects of 3 on the growth of several breast cancer cell lines [MCF-7 (ER-positive, HER2-negative, RA-sensitive); SkBr3 (ER-negative, HER2-amplified, RA-sensitive); and the normally RA-insensitive MDA-MB-231 (ER-negative, HER2-negative, RA-insensitive)] was assessed.
(§2) Cell Growth Measurement: Cells were plated at 40 k cells per well (6-well plate) in DMEM 5% FBS-T for all cell lines except for I-IMEC cells which were plated in supplemented MEBM from Clonetics. Cells were treated every 48 hours and media was refreshed every 96 hours. After 10 days of treatment cells were harvested in 0.1N NaOH and growth was quantified by analyzing protein content of lysates with a Lowry assay.

SkBr3 = test: Cell growth measurement; assay type: cell-based; conditions: 10 days of treatment
Protocol: as §1, §2

MDA-MB-231 = test: Cell growth measurement; assay type: cell-based; conditions: 10 days of treatment
Protocol: as §1, §2

[13] = system: normal human mammary epithelial cells (HMEC); test: Cell growth measurement; assay type: cell-based
K-562 [14] = conditions: K-562 (Leukemia); 48 h
ACHN [15] = conditions: ACHN (Renal); 48 h
BT-549 [16] = test: cells; conditions: Homo sapiens, BT-549, 48 h
MOLT-4 [17] = test: cells; conditions: Homo sapiens, MOLT-4, 48 h
DU-145 [18] = conditions: DU-145 (Prostate); 48 h
NCI/ADR-RES = test: cells; conditions: Homo sapiens, 48 h
SNB-19 = test: cells; conditions: Homo sapiens, SNB-19, 48 h
OVCAR-5 = test: cells; conditions: Homo sapiens, OVCAR-5, 48 h
[19] = system: RAR target genes in MCF-7 cell line; test: RT-qPCR analysis of RAR target genes; assay type: cell-based
Description: The agonist activity of 3 through its effects on RAR target genes was subsequently analyzed (FIG. 3).

BT-549 [20] = conditions: BT-549 (Breast); 48 h
HT29 = HT29 (Colon); 48 h
NCI-H522 = test: cells; conditions: Homo sapiens, NCI-H522, 48 h
SW-620 [21] = conditions: SW-620 (Colon); 48 h

CC1(C)CCC(C)(C)c2cc(-c3ccc4cc(C(=O)NO)ccc4c3)ccc21 [hybrid 3]
GI50 (ACHN [1]): 393 nM
CC50 (ACHN [1]; read-out: LC50): 5090 nM
GI50 (SW-620 [2]): 626 nM
CC50 (SW-620 [2]; read-out: LC50): 4850 nM
GI50 (OVCAR-3 [3]): 603 nM
CC50 (OVCAR-3 [3]; read-out: LC50): 4480 nM
TGI (HOP-62): 2190 nM
TGI (T-47D [4]): 4030 nM
GI50 (HL-60(TB)): 353 nM
CC50 (HL-60(TB); read-out: LC50): 7660 nM
TGI (SNB-75): 6100 nM
GI50 (T-47D [5]): 1270 nM
CC50 (T-47D [5]; read-out: LC50): 28000 nM
TGI (OVCAR-3 [6]): 1880 nM
hyperacetylation of histone H4 and p53 [7]: clear hyperacetylation
GI50 (A498 [8]): 1660 nM
CC50 (A498 [8]; read-out: LC50): 8710 nM
TGI (A549/ATCC): 2150 nM
TGI (MCF7): 1680 nM
GI50 (DU-145 [9]): 622 nM
CC50 (DU-145 [9]; read-out: LC50): 4680 nM
TGI (MOLT-4 [10]): 1460 nM
TGI (A498 [11]): 3800 nM
TGI (COLO205): 2330 nM
GI50 (K-562 [12]): 399 nM
CC50 (K-562 [12]; read-out: LC50): 5510 nM
effect on cell growth (MCF-7): active
IC50 (MCF-7; Homo sapiens, MCF7, 240 h): 150 nM
effect on cell growth (SkBr3): active
IC50 (SkBr3; Homo sapiens, SK-BR-3, 240 h): 90 nM
effect on cell growth (MDA-MB-231): active
IC50 (MDA-MB-231; Homo sapiens, 240 h): 300 nM
effect on growth of normal cells [13]: only minimal effects
TGI (K-562 [14]): 1460 nM
TGI (ACHN [15]): 1490 nM
GI50 (BT-549 [16]): 1420 nM
CC50 (BT-549 [16]; read-out: LC50): 19700 nM
GI50 (MOLT-4 [17]): 371 nM
CC50 (MOLT-4 [17]; read-out: LC50): 7800 nM
TGI (DU-145 [18]): 1900 nM
GI50 (NCI/ADR-RES): 502 nM
CC50 (NCI/ADR-RES; read-out: LC50): 5340 nM
GI50 (SNB-19): 1090 nM
CC50 (SNB-19; read-out: LC50): 5090 nM
GI50 (OVCAR-5): 4120 nM
CC50 (OVCAR-5; read-out: LC50): 46100 nM
induction of RAR target genes (RT-qPCR) [19]: clear induction of RARB2 and DHRS3
TGI (BT-549 [20]): 4810 nM
TGI (HT29): 2340 nM
GI50 (NCI-H522): 1620 nM
CC50 (NCI-H522; read-out: LC50): 7980 nM
TGI (SW-620 [21]): 1940 nM
